The test system of one experiment is SD rats. As to the kind of experiment: Oral Glucose Tolerance Test (OGTT) in SD rats: blood glucose excursion AUC and urine glucose excretion. It is filed as in vivo, rat. To be noted: mean ± SE; for response vs control in vivo at 1 mg/kg / response vs control in vivo at 10 mg/kg: Rattus norvegicus, 2 h, n = 8, read-out: 120-min Blood Glucose AUC vs Vehicle (%); for Urine Glucose Excretion (g/0-4 hr): n = 8. How it is done:
Biological Example 2: In Vivo Assay
Oral Glucose Tolerance Test (OGTT) in SD Rats
Overnight fasted SD rats were allocated into vehicle or test compound treatment groups based on their body weights (n=8 in each group). The animals were orally dosed with vehicle or test compound at a volume of 10 ml/kg at 30-minute prior to OGTT. The animals then received an OGTT challenge with 2 g/kg (50% glucose solution at the volume of 4 ml/kg, orally). The animals were immediately transferred into metabolic cages after they were dosed with the glucose. Blood glucose levels were measured at 0 (pre-OGTT), 30, 60, and 120 minutes after OGTT using one-touch Glucometer. Blood glucose excursion AUC (area under the curve of blood glucose) was determined from the blood glucose levels measured at the timepoints.
Table 9 below, presents the measured efficacy of the test compound(s), expressed as the percentage (%) of blood glucose AUC vs that in vehicle group. The data is interpreted such that, the smaller the percentage of blood glucose AUC of compound vs vehicle, the greater the efficacy of the test compound. Urine volume and urine glucose concentrations (tested by using Olympus system with Genzyme diagnostics assay reagent) were measured to determine the urine glucose excretion (UGE) in 4-hr period after OGTT (0-4 hours).

A further experiment concerns the target T1, human SGLT2 (Homo sapiens, UniProt P31639).
T1 construct: expressed in transfected cells
T1 sequence (P31639 1-672): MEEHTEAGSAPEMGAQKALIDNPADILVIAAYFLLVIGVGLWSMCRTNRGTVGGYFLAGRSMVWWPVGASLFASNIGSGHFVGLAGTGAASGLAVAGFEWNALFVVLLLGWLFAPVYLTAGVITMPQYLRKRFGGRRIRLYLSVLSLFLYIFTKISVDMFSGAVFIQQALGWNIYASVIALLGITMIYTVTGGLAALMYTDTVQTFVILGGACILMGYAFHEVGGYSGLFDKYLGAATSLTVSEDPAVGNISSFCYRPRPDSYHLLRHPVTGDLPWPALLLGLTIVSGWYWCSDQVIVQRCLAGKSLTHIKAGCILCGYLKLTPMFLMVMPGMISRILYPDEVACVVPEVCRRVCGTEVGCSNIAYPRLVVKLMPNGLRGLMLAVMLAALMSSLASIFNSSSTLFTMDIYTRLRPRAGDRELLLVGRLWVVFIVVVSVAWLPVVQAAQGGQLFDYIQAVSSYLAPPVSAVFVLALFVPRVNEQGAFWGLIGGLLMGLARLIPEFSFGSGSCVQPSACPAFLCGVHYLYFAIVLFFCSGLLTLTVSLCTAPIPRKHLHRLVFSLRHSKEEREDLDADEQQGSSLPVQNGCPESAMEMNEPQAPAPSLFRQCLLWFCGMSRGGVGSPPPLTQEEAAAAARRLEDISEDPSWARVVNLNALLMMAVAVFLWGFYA
The experiment can be described thus: SGLT2 in vitro assay: Na-dependent 14C-AMG uptake in CHO-K1 cells stably expressing human SGLT2. It is filed as cell-based. To be noted: CHO-K1 cells stably expressing human SGLT2, 14C-AMG uptake; for inhibition at 0.3 µM: read-out: SGLT2 % Inh @ 0.3 μM; for IC50: compounds of formula (I) where R0 is fluoro. In outline:
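Sodium-dependent uptake of 14C-α-methyl-glucopyranoside ([…]) over 2 h at 37°C was counted by scintillation in stable human SGLT2- or SGLT1-CHO-K1 lines pretreated with 10 mM Na-butyrate. Compounds at 0.001–10 μM were preincubated for 10 min in pH 7.4 buffer with 137 mM NaCl; output is %-inhibition or IC50.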

One may read the IC50 as the point on the concentration scale where inhibition reaches its midpoint. A lower IC50 goes with higher potency.

SMILES strings stand for the structures.

Consider `COc1cc(O)c([C@@H]2O[C@H](CO)C(F)(F)[C@H](O)[C@H]2O)cc1Cc1ccc2c(c1)CCCO2` [Compound 44, (2S,3R,4R,6R)-2-(5-(chroman-6-ylmethyl)-2-hydroxy-4-methoxyphenyl)-5,5-difluoro-6-(hydroxymethyl)tetrahydro-2H-pyran-3,4-diol], for which, in the experiment with SD rats (oral dose 1 mg/kg), the response vs control in vivo at 1 mg/kg was determined as 61.7 ± 2.1% and the “Urine Glucose Excretion (g/0-4 hr)” value amounted to 0.002 ± 0.001 g/0-4 hr. In the experiment with SD rats (oral dose 10 mg/kg), the response vs control in vivo at 10 mg/kg was determined as 39.3 ± 1.7% and the “Urine Glucose Excretion (g/0-4 hr)” value came to 0.2 ± 0.02 g/0-4 hr. On human SGLT2, the inhibition at 0.3 µM was found to be 90.1% and the IC50 turned out to be 1.3 nM.

As for `COc1ccc(Cc2cc([C@@H]3O[C@H](CO)C(F)(F)[C@H](O)[C@H]3O)c(O)cc2Cl)cc1` [Compound 81, (2S,3R,4R,6R)-2-(4-chloro-2-hydroxy-5-(4-methoxybenzyl)phenyl)-5,5-difluoro-6-(hydroxymethyl)-tetrahydro-2H-pyran-3,4-diol], in the experiment on SD rats (oral dose 1 mg/kg), the response vs control in vivo at 1 mg/kg was determined as 77.5 ± 2.4% and the “Urine Glucose Excretion (g/0-4 hr)” value worked out at 0.099 ± 0.037 g/0-4 hr. Also, in the experiment with SD rats (oral dose 10 mg/kg), the response vs control in vivo at 10 mg/kg was found to be 41 ± 2.7% and the “Urine Glucose Excretion (g/0-4 hr)” value is on record as 0.276 ± 0.032 g/0-4 hr. Also, at human SGLT2, the inhibition at 0.3 µM turned out to be 87.4% and the IC50 is 1.1 nM.

These data come from patent US20210238170A1, “5,5-Difluoro- and 5-Fluoro-5-Methyl-C-Glycoside Derivatives Useful As Dual SGLT1 / SGLT2 Modulators” (Janssen Pharmaceutica NV, priority 2018, published 2021).
